Experimental data as given in patent US20170066759A1, “AROMATIC 5-MEMBERED HETEROCYCLIC DERIVATIVE HAVING TRPV4-INHIBITING ACTIVITY” (Shionogi & Co., Ltd., priority 2012, published 2017).

How the values were obtained:
hERG (IKr) = biological target: T1, hERG (IKr) (Homo sapiens, UniProt Q12809); experiment: Test Example 10: hERG test (IKr, whole cell patch clamp); assay type: cell-based; settings: HEK293 cells expressing hERG channel, pH 7.4, 1 μmol/L of the compound, read-out: hERG % inhibition of tail peak current (IKr)
T1 construct: expressed in transfected cells; host or cells: HEK293
T1 sequence (Q12809 whole entry): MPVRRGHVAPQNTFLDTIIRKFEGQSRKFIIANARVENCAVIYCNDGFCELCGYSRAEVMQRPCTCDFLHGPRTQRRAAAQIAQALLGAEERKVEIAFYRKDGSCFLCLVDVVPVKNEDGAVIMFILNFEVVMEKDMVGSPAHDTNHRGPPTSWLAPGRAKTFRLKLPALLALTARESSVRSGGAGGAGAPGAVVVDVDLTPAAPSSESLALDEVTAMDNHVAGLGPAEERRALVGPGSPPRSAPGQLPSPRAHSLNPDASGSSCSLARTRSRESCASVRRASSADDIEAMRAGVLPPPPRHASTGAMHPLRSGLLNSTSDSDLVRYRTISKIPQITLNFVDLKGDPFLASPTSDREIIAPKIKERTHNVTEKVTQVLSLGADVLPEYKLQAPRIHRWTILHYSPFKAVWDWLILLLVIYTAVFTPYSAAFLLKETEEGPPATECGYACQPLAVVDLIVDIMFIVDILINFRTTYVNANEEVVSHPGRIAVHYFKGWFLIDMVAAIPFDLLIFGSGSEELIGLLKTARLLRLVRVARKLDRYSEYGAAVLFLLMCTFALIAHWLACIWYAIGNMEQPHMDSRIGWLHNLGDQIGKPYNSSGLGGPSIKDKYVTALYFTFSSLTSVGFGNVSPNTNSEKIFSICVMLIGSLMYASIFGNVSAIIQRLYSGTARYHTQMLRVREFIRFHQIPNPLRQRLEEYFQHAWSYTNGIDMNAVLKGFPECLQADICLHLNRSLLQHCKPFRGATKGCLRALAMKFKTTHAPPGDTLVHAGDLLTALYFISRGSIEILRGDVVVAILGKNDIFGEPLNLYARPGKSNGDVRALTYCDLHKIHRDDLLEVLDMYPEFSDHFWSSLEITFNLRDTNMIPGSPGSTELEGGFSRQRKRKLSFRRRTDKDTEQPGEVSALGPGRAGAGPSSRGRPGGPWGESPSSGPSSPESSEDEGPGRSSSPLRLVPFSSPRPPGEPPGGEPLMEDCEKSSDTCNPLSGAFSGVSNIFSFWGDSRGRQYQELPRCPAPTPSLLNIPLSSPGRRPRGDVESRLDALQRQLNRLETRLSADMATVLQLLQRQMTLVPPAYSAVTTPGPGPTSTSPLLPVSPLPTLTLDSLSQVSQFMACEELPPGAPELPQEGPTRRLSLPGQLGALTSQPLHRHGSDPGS
From the text: For the purpose of assessing risk of an electrocardiogram QT interval prolongation of a compound of the present invention, effects of the compound of the present invention on delayed rectifier K^+ current (IKr), which plays an important role in the ventricular repolarization process, was studied using HEK293 cells expressing human ether-a-go-go related gene (hERG) channel.
After a cell was retained at a membrane potential of −80 mV by whole cell patch clamp method using an automated patch clamp system (PatchXpress 7000A, Axon Instruments Inc.), IKr induced by depolarization pulse stimulation at +40 mV for 2 seconds and, further, repolarization pulse stimulation at −50 mV for 2 seconds was recorded. […] From the recording IKr, an absolute value of the tail peak current was measured based on the current value at the resting membrane potential using an analysis software (DataXpress ver. 1, Molecular Devices Corporation). Further, the % inhibition relative to the tail peak current before application of the compound of the present invention was calculated, and compared with the vehicle-applied group (0.1% dimethyl sulfoxide solution) to assess influence of the compound of the present invention on IKr. […]

[1] = biological target: T2, human TRPV4 (hTRPV4/CHO cells) (Homo sapiens, UniProt Q9HBA0); experiment: Test Example 1: TRPV4 inhibitory activity (IC50 value), 4α-PDD stimulation, Fluo4 calcium fluorescence (FLIPR TETRA); assay type: cell-based; settings: Test Example 1, 4α-PDD stimulation, read-out: Test 1 IC50
T2 construct: expressed in transfected cells; host or cells: CHO-K1
T2 sequence (Q9HBA0 whole entry): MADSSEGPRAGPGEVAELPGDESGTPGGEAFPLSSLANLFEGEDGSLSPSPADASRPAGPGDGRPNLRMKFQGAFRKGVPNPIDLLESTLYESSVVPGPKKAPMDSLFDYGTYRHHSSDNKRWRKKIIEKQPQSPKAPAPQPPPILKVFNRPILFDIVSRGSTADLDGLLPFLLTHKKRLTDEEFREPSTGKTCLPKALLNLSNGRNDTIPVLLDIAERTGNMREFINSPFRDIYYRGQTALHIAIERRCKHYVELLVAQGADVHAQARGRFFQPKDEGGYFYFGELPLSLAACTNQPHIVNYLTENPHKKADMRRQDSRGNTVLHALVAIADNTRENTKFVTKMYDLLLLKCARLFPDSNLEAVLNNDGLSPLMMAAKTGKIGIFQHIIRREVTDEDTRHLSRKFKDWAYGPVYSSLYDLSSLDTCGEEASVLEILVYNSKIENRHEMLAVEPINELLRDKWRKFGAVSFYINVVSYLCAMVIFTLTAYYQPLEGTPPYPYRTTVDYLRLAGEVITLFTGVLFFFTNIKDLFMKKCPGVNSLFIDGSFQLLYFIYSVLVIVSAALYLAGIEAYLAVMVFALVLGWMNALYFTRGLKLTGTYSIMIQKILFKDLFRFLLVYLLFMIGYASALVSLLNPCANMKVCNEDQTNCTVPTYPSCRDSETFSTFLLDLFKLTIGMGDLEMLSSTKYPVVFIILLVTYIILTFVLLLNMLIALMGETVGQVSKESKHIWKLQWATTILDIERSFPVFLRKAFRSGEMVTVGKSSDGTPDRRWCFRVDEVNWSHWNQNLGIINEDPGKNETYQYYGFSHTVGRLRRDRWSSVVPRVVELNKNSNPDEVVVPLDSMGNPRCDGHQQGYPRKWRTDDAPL

CYP1A2 = biological target: T3, CYP1A2 (Homo sapiens, UniProt P05177); experiment: Test Example 6: CYP inhibition test, 7-ethoxyresorufin O-deethylation (CYP1A2); assay type: in vitro ADME; settings: pooled human hepatic microsome, 0.5 μmol/L ethoxyresorufin
T3 construct: enzyme, pooled human hepatic microsome 0.2 mg protein/mL; from tissue; host or cells: pooled human liver microsomes
T3 sequence (P05177 1-516): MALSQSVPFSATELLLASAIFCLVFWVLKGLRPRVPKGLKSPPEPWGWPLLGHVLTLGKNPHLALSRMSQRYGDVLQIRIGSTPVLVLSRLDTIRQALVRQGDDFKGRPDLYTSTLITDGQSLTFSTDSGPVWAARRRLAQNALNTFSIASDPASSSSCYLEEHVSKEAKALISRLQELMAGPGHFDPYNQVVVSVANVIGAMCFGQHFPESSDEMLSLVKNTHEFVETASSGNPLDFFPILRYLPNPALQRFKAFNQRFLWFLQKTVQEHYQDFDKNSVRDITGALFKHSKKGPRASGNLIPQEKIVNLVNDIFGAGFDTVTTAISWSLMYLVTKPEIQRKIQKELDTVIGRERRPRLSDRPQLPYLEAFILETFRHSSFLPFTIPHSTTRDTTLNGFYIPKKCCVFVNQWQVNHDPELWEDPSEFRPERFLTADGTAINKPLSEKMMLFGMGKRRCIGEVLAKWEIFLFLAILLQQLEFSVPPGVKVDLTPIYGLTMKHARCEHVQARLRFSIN
Method: (§1) Test Example 6 CYP Inhibition Test […] The reaction conditions were as follows: substrate, 0.5 μmol/L ethoxyresorufin (CYP1A2), 100 μmol/L tolbutamide (CYP2C9), 50 μmol/L S-mephenytoin (CYP2C19), 5 μmol/L dextromethorphan (CYP2D6), 1 μmol/L terfenedine (CYP3A4); reaction time, 15 minutes; reaction temperature, 37° C.; enzyme, pooled human hepatic microsome 0.2 mg protein/mL; concentration of the compound of the present invention, 1, 5, 10, 20 μmol/L (four points). Each five kinds of substrates, human hepatic microsome, and the compound of the present invention in 50 mmol/L Hepes buffer as a reaction solution were added to a 96-well plate at the composition as described above. NADPH, as a cofactor was added to initiate metabolism reactions as markers and, after the incubation at 37° C. for 15 minutes, a methanol/acetonitrile=1/1 (v/v) solution was added to stop the reaction. After the centrifugation at 3000 rpm for 15 minutes, resorufin (CYP1A2 metabolite) in the supernatant was quantified by a fluorescent multilabel counter and toltributamide hydroxide (CYP2[…] metabolite), mephenytoin 4' hydroxide (CYP2C19 metabolite), […], and terfenadine alcohol (CYP3A4 metabolite) were quantified by LC/MS/MS. Addition of only DMSO being a solvent dissolving the compound of the present invention to a reaction system was adopted as a control (100%). Remaining activity (%) was calculated at each concentration of the compound of the present invention added as the solution and IC50 was calculated by reverse presumption by a logistic model using a concentration and an inhibition rate.

CYP2C9 = biological target: T4, CYP2C9 (Homo sapiens, UniProt P11712); experiment: Test Example 6: CYP inhibition test, tolbutamide methyl-hydroxylation (CYP2C9); assay type: in vitro ADME; settings: pooled human hepatic microsome, 100 μmol/L tolbutamide
T4 construct: enzyme, pooled human hepatic microsome 0.2 mg protein/mL; from tissue; host or cells: pooled human liver microsomes
T4 sequence (P11712 whole entry): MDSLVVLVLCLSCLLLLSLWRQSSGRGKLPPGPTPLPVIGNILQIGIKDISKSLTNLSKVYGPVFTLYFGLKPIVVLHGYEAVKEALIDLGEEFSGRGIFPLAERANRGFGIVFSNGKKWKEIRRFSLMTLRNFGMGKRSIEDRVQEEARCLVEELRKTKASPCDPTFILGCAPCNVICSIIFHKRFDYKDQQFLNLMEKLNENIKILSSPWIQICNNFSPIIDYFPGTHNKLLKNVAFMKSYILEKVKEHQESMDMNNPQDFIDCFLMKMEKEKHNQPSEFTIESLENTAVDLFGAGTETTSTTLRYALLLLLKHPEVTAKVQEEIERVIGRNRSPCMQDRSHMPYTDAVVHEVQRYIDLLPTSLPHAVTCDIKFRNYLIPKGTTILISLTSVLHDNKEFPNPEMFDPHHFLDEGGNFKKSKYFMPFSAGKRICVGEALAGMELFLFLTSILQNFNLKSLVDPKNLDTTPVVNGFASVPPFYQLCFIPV
Method: as §1

CYP3A4 = biological target: T5, CYP3A4 (Homo sapiens, UniProt P08684); experiment: Test Example 6: CYP inhibition test, terfenedine hydroxylation (CYP3A4); assay type: in vitro ADME; settings: pooled human hepatic microsome, 1 μmol/L terfenedine
T5 construct: enzyme, pooled human hepatic microsome 0.2 mg protein/mL; from tissue; host or cells: pooled human liver microsomes
T5 sequence (P08684 whole entry): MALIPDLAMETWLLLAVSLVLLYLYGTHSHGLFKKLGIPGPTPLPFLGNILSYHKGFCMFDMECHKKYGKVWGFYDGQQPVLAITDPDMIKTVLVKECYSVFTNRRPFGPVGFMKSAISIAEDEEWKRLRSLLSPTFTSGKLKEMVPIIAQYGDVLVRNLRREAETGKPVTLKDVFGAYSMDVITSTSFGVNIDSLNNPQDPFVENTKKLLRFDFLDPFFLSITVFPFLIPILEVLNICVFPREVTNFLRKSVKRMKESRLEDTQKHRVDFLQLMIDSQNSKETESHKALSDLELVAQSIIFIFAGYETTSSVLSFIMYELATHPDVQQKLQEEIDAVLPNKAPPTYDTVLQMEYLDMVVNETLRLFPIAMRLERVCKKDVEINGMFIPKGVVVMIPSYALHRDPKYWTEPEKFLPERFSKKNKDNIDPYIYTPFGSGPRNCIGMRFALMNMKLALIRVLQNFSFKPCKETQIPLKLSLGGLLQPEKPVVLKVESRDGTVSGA
Method: as §1

| IC50 (CYP1A2) | IC50 (CYP2C9) | IC50 (CYP3A4) | Compound | inhibition at 10 min, 1 μmol/L (hERG (IKr)) | IC50 [1] |
| --- | --- | --- | --- | --- | --- |
| – | – | – | Cc1nc(C)c(-c2csc(NC(=O)C3CCC(F)(F)C3)n2)s1 (centres unmarked) [Compound I-18] | 6.1% | 0.1 to 1 µM |
| > 20 µM | > 20 µM | > 20 µM | Cc1nc(C)c(-c2csc(NC(=O)Cc3ccc(S(C)(=O)=O)cc3)n2)s1 [Compound I-17] | – | – |
